Assays:
[1] = system: genotype A, “Long” strain RSV; assay: RSV-A assay (CPE, ATPlite readout in Hep-2 cells); assay type: cell-based, Human respiratory syncytial virus; conditions: human respiratory syncytial virus, activity class
Procedure, shortened: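 Hep-2, 8,000 cells/well, MOI 0.1 (PFU- or TCID50-based); 2-fold compound series, duplicates; 5 d incubation; ATPlite luminescence readout; EC50.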

[2] = system: HMPV clinical isolate A2 strain TN 94-49; assay: HMPV antiviral assay, Method 1 (LLC-MK2 cells, ATP-Lite); assay type: cell-based; conditions: human metapneumovirus, hMPV A2 TN/94-49, LLC-MK2 cells
Procedure, shortened: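 EC50 derived by four-parameter logistic fit of percent cell health, measured as ATP-Lite luminescence after 7 days at 37° C, 5% CO2. Compounds tested as 10-point 2.5-fold dilutions starting at 2 μM against TN 94-49 virus (MOI 0.005) in LLC-MK2 cells seeded at 5,000/well, infection medium containing 2 μg/mL TPCK-trypsin, serum-free.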

[3] = system: HMPV clinical isolate A2 strain TN 94-49; assay: HMPV antiviral assay, Method 2 (LLC-MK2 cells with CP-100-356, ATP-Lite); assay type: cell-based; conditions: human metapneumovirus; hMPV A2 TN/94-49, LLC-MK2 cells with CP-100-356, Method 2
Procedure, shortened: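 EC50 comes from a four-parameter fit of percent cell viability (ATP-Lite, normalized to virus-only and cell-only wells) after 7 days at 37 °C. Infection used HMPV A2 TN 94-49 at MOI 0.16 in LLC-MK2 cells, with 2 μM P-gp inhibitor CP-100-356 and 2 μg/mL TPCK-trypsin final; dose range 200 nM top, 2.5-fold, 10 points, duplicate.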

HRSV = conditions: prophylactic use, high risk infants; cited from earlier work

Row | Compound | EC50 [1] | EC50 [2] | EC50 [3] | effective in reducing hospitalizations (HRSV)
1 | COc1cc(C(=O)NC[C@](O)(c2cc3c(c(-c4ccc5c(c4Cl)OC(F)(F)O5)n2)OC[C@]3(C)C(N)=O)C2CC2)cc2cn(C(F)F)nc12 [Example 457] | < 200 nM | < 500 nM | < 200 nM | 
2 | COc1cccc([C@](O)(CNC(=O)c2cc(OC)c3nn(C4(F)CC4)cc3c2)c2cc3c(c(-c4cc(Cl)c(F)cc4F)n2)OC[C@]3(C)C(N)=O)c1 [Example 162] | < 200 nM | < 500 nM | < 200 nM | 
3 | C[C@]1(C(N)=O)COc2c1cc([C@@](O)(CNC(=O)c1cc(OC3CC3)c3nn(C(F)F)cc3c1)C1CC1)nc2-c1ccc2c(c1Cl)OC(F)(F)O2 [Example 129] | < 200 nM | < 500 nM | < 200 nM | 
4 | Palivizumab: "a monoclonal antibody that is approved for prophylactic use, but its use is limited due to its high price" |  |  |  | 60%

The next lines start with results.

Row | EC50 [1] | EC50 [2] | EC50 [3] | Compound | effective in reducing hospitalizations (HRSV)
5 | < 200 nM | < 500 nM | < 200 nM | COc1cc(C(=O)NC[C@](O)(c2cc3c(c(-c4cc(C)c(F)cc4F)n2)OC[C@]3(C)C(N)=O)C2CC2)cc2cn(C3CC3)nc12 [Example 385] | 
6 | < 200 nM | < 500 nM | < 200 nM | COc1cc(C(=O)NC[C@](O)(c2cc3c(c(-c4cc(C(F)(F)F)c(F)cc4F)n2)OC[C@]3(C)C(N)=O)C2CC2)cc2cn(C3CC3)nc12 [Example 394] | 
7 | < 200 nM | < 500 nM | < 200 nM | [2H]c1nc2c(OC(F)F)cc(C(=O)NC[C@](O)(c3cc4c(c(-c5cc(Cl)c(F)cc5F)n3)OC[C@]4(C)C(N)=O)C3CC3)cc2cc1C([2H])([2H])[2H] [Example 218] | 
8 | < 200 nM | > 500 nM | < 200 nM | C[C@]1(C(N)=O)COc2c1cc([C@@](O)(CNC(=O)c1cc(O)c3nn(C4CC4)cc3c1)C1CC1)nc2-c1cc(F)c(F)cc1F [Example 360] | 
9 | < 200 nM | < 500 nM | < 200 nM | COc1cc(C(=O)NC[C@](O)(c2cc3c(c(-c4cc(C(F)F)c(F)cc4F)n2)OC[C@]3(C)C(N)=O)C2CC2)cc2cn(C3CC3)nc12 [Example 393] | 

From US20240368174A1, “Antiviral Heterocyclic Compounds” (Enanta Pharmaceuticals, Inc., priority 2023, published 2024)
